Assay results as given in patent publication US20230114728A1 (Venatorx Pharmaceuticals, Inc., priority 2019, published 2023).
Converted amounts (≈) assume the structure as drawn.

Experiments:
P. aeruginosa ATCC 35151 = test: Broth microdilution MIC in CAMHB; type: cell-based; conditions: Pseudomonas aeruginosa, ATCC35151; MHB; hyper-permeable strain; read-out: Minimum Inhibitory Concentration, P. aeruginosa ATCC 35151
Method in brief: (§1)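 Per CLSI broth microdilution, colonies were grown 3-5 h at 37° C in cation-adjusted Mueller Hinton broth, then diluted to a starting inoculum of 2-8×10^5 CFU/mL against 2-fold serial compound dilutions. Plates were incubated 16-20 h at 37° C, and MIC was read visually as the lowest concentration with no growth.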

[1] = system: K. pneumoniae UMM producing SHV-5 and KPC-2; test: Broth microdilution MIC in CAMHB; type: cell-based; conditions: Klebsiella pneumoniae, read-out: Minimum Inhibitory Concentration, K. pneumoniae UMM
Method in brief: as §1

[2] = system: P. aeruginosa (ΔmexAB-oprM); test: Broth microdilution MIC in CAMHB; type: cell-based; conditions: Pseudomonas aeruginosa, read-out: Minimum Inhibitory Concentration, P. aeruginosa ΔmexAB-OprM
Method in brief: as §1

E. coli 901C = test: Broth microdilution MIC in CAMHB; type: cell-based; conditions: Escherichia coli; E. coli 901C (hyper-permeable); MHB; read-out: Minimum Inhibitory Concentration, E. coli 901C
Method in brief: as §1

[3] = system: K. pneumoniae SI-117 producing VIM-1; test: Broth microdilution MIC in CAMHB; type: cell-based; conditions: Klebsiella pneumoniae, read-out: Minimum Inhibitory Concentration, K. pneumoniae SI-117
Method in brief: as §1

E. coli ATCC 25922 = test: Broth microdilution MIC in CAMHB; type: cell-based; conditions: Escherichia coli, ATCC25922; E. coli ATCC 25922; MHB; read-out: Minimum Inhibitory Concentration, E. coli 25922
Method in brief: as §1

E. coli AG100A = test: Broth microdilution MIC in CAMHB; type: cell-based; conditions: Escherichia coli, read-out: Minimum Inhibitory Concentration, E. coli AG100A
Method in brief: as §1

E. coli AG100 = test: Broth microdilution MIC in CAMHB; type: cell-based; conditions: Escherichia coli; E. coli AG100 (wild-type parent); MHB; read-out: Minimum Inhibitory Concentration, E. coli AG100
Method in brief: as §1

A. baumannii ATCC 19606 = test: Broth microdilution MIC in CAMHB; type: cell-based; conditions: Acinetobacter baumannii, ATCC19606; MHB; read-out: Minimum Inhibitory Concentration, A. baumannii ATCC 19606
Method in brief: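 Lowest compound concentration with no visible growth after 16-20 h at 37 °C defines MIC. Plates of 2-fold serial dilutions in cation-adjusted Mueller Hinton broth received 2-8×10^5 CFU/mL of exponentially grown cells, per CLSI methods; panel spans reference, hyper-permeable and efflux-pump-deleted strains.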

E. coli D22 = test: Broth microdilution MIC in CAMHB; type: cell-based; conditions: Escherichia coli; E. coli D22 (hyper-permeable); MHB; read-out: Minimum Inhibitory Concentration, E. coli D22
Method in brief: as §1

[4] = system: K. pneumoniae 848844 producing SHV-11 and KPC-2; test: Broth microdilution MIC in CAMHB; type: cell-based; conditions: Klebsiella pneumoniae, read-out: Minimum Inhibitory Concentration, K. pneumoniae 848844
Method in brief: as §1

P. aeruginosa PAO1 = test: Broth microdilution MIC in CAMHB; type: cell-based; conditions: Pseudomonas aeruginosa, MHB, read-out: Minimum Inhibitory Concentration, P. aeruginosa PAO1
Protocol: To determine the ability of test compounds to inhibit the growth of bacterial strains, classic cell based broth microdilution minimum inhibitory concentration (MIC) assays were employed. MIC assays are performed according to CLSI methods except where otherwise noted (CLSI, 2018 and CLSI, 2019). The reference type strain E. coli ATCC 25922; the wild-type parent strain E. coli AG100; the hyper-permeable E. coli 901C and E. coli D22; and the E. coli AG100A strain lacking the acrAB efflux pump encoding genes were used to determine the ability of the PBP inhibitors to penetrate the outer membrane of gram-negative bacteria and inhibit bacterial growth. […] The P. aeruginosa ATCC 27853 and A. baumannii ATCC 19606, along with the hyper-permeable P. aeruginosa ATCC 35151 and an engineered efflux pump-compromised strain of P. aeruginosa (ΔmexAB-oprM) were used to determine the ability of PBP inhibitors to penetrate the outer membrane of P. aeruginosa and A. baumannii and assess antibacterial activity against these important gram-negative organisms.
Briefly, cryo-preserved bacterial cultures of challenge strains are streaked for isolation on appropriate agar medium, in this case cation-adjusted Mueller Hinton agar. Following incubation to allow growth of the colonies, plates are sealed with parafilm and stored refrigerated for up to two weeks. For preparation of assay inoculum and to ensure low variability, at least 5 colonies are picked from the agar plates with an inoculating loop and aseptically transferred to a culture tube containing 3 mL of cation-adjusted Mueller Hinton broth (CAMHB). The broth culture is grown for 3-5 hours at 37° C. with shaking at 200 rpm. Meanwhile, 2-fold serial dilutions of test compounds are conducted in a 96-well plate with a final volume of 75 μL per well at 2-fold the final desired concentration. After the dilution plates are set up the growing cultures are then diluted in a cuvette containing CAMHB and the optical density is measured at 600 nm. The inoculum is diluted such that 75 μL of this culture in CAMHB results in a starting bacterial concentration of 2-8×10^5 CFU/mL when added to the dilution plates. The plates are incubated for 16-20 hours for Enterobacteriaceae and Pseudomonas and 20-24 hours for Acinetobacter at 37° C. The MIC values are read visually as the lowest concentration well with no bacterial growth.

E. coli K12 PBP3 = target: T1, E. coli K12 PBP3 (Escherichia coli, UniProt P0AD68); test: biochemical; type: binding
T1 construct: made in house
T1 sequence (P0AD68 1-577): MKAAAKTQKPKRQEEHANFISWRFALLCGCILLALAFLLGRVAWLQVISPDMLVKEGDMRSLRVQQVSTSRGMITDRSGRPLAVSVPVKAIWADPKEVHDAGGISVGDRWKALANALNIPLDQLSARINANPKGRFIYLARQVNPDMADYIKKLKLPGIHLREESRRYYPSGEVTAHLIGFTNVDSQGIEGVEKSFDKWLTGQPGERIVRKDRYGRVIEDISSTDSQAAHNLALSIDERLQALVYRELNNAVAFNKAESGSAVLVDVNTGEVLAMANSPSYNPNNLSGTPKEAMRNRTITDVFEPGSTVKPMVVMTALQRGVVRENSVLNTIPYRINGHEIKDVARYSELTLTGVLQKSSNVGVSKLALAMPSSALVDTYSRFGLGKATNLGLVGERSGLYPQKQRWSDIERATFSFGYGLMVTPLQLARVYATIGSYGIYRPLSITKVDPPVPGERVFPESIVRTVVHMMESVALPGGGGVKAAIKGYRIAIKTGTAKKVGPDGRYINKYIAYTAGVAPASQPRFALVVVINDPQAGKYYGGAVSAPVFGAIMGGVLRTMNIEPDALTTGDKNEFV
Method in brief: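 Fluorescence polarization (ex 490/em 520 nm) competition of inhibitors against Bocillin-FL at 0.1 μM, read up to 60 min. Final PBP levels: E. coli PBP3 1.5 μM; A. baumannii PBP2 2.5 μM, PBP3 0.2 μM in Tris pH 8.0/NaCl/glycerol/Tween 20; N. gonorrhoeae PBP2 […] in Hepes pH 8.0/NaCl/glycerol. EC50 = concentration halving PBP-bound Bocillin-FL.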

P. aeruginosa PBP3 = target: T2, P. aeruginosa PBP3 (Pseudomonas aeruginosa, UniProt G3XD46); test: Bocillin-FL fluorescence polarization competition binding assay, P. aeruginosa PBP3; conditions: fluorescence polarization competition binding assay using Bocillin-FL
T2 construct: made in house
T2 sequence (G3XD46 whole entry): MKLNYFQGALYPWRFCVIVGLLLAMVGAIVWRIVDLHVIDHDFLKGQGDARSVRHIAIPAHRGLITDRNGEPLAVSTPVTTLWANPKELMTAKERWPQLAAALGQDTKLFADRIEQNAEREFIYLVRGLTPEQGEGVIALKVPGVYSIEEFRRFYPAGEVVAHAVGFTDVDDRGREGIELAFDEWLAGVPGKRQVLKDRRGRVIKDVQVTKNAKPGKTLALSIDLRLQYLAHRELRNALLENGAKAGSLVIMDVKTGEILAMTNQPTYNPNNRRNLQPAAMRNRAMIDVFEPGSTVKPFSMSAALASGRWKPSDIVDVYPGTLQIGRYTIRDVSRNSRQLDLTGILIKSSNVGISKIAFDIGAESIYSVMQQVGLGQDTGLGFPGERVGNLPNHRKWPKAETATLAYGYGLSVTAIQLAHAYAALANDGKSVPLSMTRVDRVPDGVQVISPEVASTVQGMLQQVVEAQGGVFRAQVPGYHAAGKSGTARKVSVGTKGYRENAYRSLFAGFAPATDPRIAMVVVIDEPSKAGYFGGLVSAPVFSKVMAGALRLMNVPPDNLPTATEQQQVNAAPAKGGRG
Method in brief: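 Binding of boronic acid inhibitors to purified Pseudomonas aeruginosa (PA01) PBP3 was measured by fluorescence polarization competition with Bocillin-FL, a fluorescent penicillin V. Reactions of 80 μl contained 0.75 μM PBP3 and 0.1 μM Bocillin-FL in 50 mM Hepes (pH 8.0), 300 mM NaCl and 5% (v/v) glycerol, in black 384-well plates. FP (Excitation 490 nm, Emission 520 nm) was read for up to 60 minutes. EC50 is the concentration that halves PBP-bound Bocillin-FL.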

E. coli K12 PBP2 = target: T3, E. coli K12 PBP2 (Escherichia coli, UniProt P0AD65); test: Bocillin-FL fluorescence polarization competition binding assay, E. coli PBP2
T3 construct: made in house
T3 sequence (P0AD65 whole entry): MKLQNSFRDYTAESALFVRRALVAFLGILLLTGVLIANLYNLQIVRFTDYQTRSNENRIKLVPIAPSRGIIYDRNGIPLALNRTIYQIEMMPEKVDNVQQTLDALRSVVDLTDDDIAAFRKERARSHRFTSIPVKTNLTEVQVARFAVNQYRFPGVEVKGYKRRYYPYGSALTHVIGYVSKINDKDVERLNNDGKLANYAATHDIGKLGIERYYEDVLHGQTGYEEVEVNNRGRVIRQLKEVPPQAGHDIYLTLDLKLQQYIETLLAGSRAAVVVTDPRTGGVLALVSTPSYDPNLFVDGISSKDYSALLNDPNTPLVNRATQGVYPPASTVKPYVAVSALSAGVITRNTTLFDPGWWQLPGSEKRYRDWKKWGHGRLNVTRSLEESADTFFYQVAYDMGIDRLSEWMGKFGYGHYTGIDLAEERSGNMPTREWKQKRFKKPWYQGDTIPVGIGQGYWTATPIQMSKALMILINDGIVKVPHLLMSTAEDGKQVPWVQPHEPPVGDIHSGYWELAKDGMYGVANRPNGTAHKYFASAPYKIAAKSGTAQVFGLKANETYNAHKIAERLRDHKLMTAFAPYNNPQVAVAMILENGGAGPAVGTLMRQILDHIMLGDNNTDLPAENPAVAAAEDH
Source text: (§2) Example I: Experimental Method for Penicillin-Binding Protein Binding Assays with Bocillin-FL Via Fluorescence Polarization
To determine the ability of boronic acid-based test PBP inhibitors to bind Penicillin Binding Proteins (PBPs), Bocillin-FL (fluorescently-labeled penicillin V; ThermoFisher Scientific) was used in a fluorescence polarization (FP) competition binding assay to assess inhibitor binding to PBP2, PBP3 or PBP4 from Escherichia coli (K12), PBP3 from Pseudomonas aeruginosa (PA01), PBP1a, PBP2 and PBP3 from Acinetobacter baumannii (ATCC 19606), and PBP2 from Neiserria gonorrheae (FA19). PBPs were cloned and purified as described previously (E. coli PBPs, King, D. T, et al., ACS Infectious Diseases 2015, 1, 175-184; P. aeruginosa PBP3, Han et. al., PNAS 2010, 107 (51), 22002-22007; A. baumannii PBPs, Penwell et. al., Antimicrob. Agents Chemother. 2015, 59 (3), 1680-1689; N. gonorrhoeae PBP2, Singh et. al., J Biol. Chem. 2019, 294 (38), 14020-14032). To establish assay conditions for competition binding, enzyme titration/saturation binding experiments were initially performed. Bocillin-FL was prepared at 0.2 μM in a buffer comprised of 50 mM Hepes (pH 8.0), 300 mM NaCl and 5% (v/v) glycerol for reactions with E. coli, P. aeruginosa and N. gonorrhoeae PBPs, and 25 mM Tris (pH 8.0), 200 mM NaCl and 10% (v/v) glycerol and 0.005% (v/v) Tween 20 for reactions with A. baumannii PBPs. Saturation binding was performed by mixing 40 μl of PBP solutions ranging in concentrations from 0-24 μM with 40 μl of the 0.2 μM Bocillin-FL solution, in individual wells of a black 384-well microplate. FP was measured immediately upon mixing (Excitation, 490 nm; Emission, 520 nm; g-factor, 0.96), using a Cytation3 (BioTek) microplate reader and measured continuously for up to 120 minutes. […] Bocillin-FL was added and the FP immediately measured for up to 60 minutes (90 minutes for E. coli PBP2). […]

A. baumannii PBP2 = target: T4, A. baumannii PBP2 (Acinetobacter baumannii, UniProt D0C8Z9); test: Bocillin-FL fluorescence polarization competition binding assay, A. baumannii PBP2
T4 construct: made in house
T4 sequence (D0C8Z9 1-672): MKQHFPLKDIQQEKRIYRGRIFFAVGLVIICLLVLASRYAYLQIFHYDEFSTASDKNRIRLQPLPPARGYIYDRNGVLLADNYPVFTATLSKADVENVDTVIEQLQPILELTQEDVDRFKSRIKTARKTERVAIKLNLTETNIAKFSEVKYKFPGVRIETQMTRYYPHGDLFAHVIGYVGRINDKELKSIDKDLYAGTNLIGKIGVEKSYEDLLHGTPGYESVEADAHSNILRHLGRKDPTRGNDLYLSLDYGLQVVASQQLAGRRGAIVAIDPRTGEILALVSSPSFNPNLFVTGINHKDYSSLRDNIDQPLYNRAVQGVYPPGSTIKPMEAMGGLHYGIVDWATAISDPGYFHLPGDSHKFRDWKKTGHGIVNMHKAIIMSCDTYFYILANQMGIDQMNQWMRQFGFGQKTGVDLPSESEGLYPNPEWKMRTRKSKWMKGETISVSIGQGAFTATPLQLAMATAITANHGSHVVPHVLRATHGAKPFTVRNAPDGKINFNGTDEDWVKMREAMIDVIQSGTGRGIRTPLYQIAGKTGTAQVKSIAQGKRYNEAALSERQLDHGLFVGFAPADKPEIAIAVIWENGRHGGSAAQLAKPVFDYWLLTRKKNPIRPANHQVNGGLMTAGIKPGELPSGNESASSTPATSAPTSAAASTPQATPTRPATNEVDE
Source text: as §2
To determine the ability of boronic acid-based test PBP inhibitors to bind Penicillin Binding Proteins (PBPs), Bocillin-FL (fluorescently-labeled penicillin V; ThermoFisher Scientific) was used in a fluorescence polarization (FP) competition binding assay to assess inhibitor binding to PBP2, PBP3 or PBP4 from Escherichia coli (K12), PBP3 from Pseudomonas aeruginosa (PA01), PBP1a, PBP2 and PBP3 from Acinetobacter baumannii (ATCC 19606), and PBP2 from Neiserria gonorrheae (FA19). PBPs were cloned and purified as described previously (E. coli PBPs, King, D. T, et al., ACS Infectious Diseases 2015, 1, 175-184; P. aeruginosa PBP3, Han et. al., PNAS 2010, 107 (51), 22002-22007; A. baumannii PBPs, Penwell et. al., Antimicrob. Agents Chemother. 2015, 59 (3), 1680-1689; N. gonorrhoeae PBP2, Singh et. al., J Biol. Chem. 2019, 294 (38), 14020-14032). To establish assay conditions for competition binding, enzyme titration/saturation binding experiments were initially performed. Bocillin-FL was prepared at 0.2 μM in a buffer comprised of 50 mM Hepes (pH 8.0), 300 mM NaCl and 5% (v/v) glycerol for reactions with E. coli, P. aeruginosa and N. gonorrhoeae PBPs, and 25 mM Tris (pH 8.0), 200 mM NaCl and 10% (v/v) glycerol and 0.005% (v/v) Tween 20 for reactions with A. baumannii PBPs. Saturation binding was performed by mixing 40 μl of PBP solutions ranging in concentrations from 0-24 μM with 40 μl of the 0.2 μM Bocillin-FL solution, in individual wells of a black 384-well microplate. FP was measured immediately upon mixing (Excitation, 490 nm; Emission, 520 nm; g-factor, 0.96), using a Cytation3 (BioTek) microplate reader and measured continuously for up to 120 minutes. […] The competition binding assay (80 μl final volume) was validated using beta-lactams and PBPs at final concentrations of: 1.5 μM, E. coli PBP3; 0.75 μM, P. aeruginosa PBP3; 1 μM A. baumannii PBP1a; 2.5 μM A. baumannii PBP2; 0.2 μM A. baumannii PBP3; and […] N. gonorrhoeae PBP2. Bocillin-FL was at 0.1 μM (0.05 μM with A. baumannii PBP1a) and beta-lactam concentrations ranged from 0-1000 μM. […] Bocillin-FL was added and the FP immediately measured for up to 60 minutes (90 minutes for E. coli PBP2). […] The beta-lactam potency was reported as the concentration of beta-lactam required to reduce the amount of PBP bound-Bocillin-FL by 50% (EC50). […] Binding assays for boronic acid PBP inhibitors were performed in an identical fashion for the respective PBPs

Structure (SMILES)	MIC (P. aeruginosa ATCC 35151) [µg/mL]	MIC [1] [µg/mL]	MIC [2] [µg/mL]	MIC (E. coli 901C) [µg/mL]	MIC [3] [µg/mL]	MIC (E. coli ATCC 25922) [µg/mL]	MIC (E. coli AG100A) [µg/mL]	MIC (E. coli AG100) [µg/mL]	MIC (A. baumannii ATCC 19606) [µg/mL]	MIC (E. coli D22) [µg/mL]	MIC [4] [µg/mL]	MIC (P. aeruginosa PAO1) [µg/mL]	EC50 (E. coli K12 PBP3) [µM]	P. aeruginosa PBP3 Potency (P. aeruginosa PBP3)	EC50 (E. coli K12 PBP2) [µM]	EC50 (A. baumannii PBP2) [µM]
CCN1CCN(C(=O)NC(C(=O)N[C@H]2Cc3ccc(C(F)(F)F)c(C(=O)O)c3OB2O)c2csc(N)n2)C(=O)C1=O (stereo partly drawn) [Example 63, (3R)-3-(2-(2-aminothiazol-4-yl)-2-(4-ethyl-2,3-dioxopiperazine-1-carboxamido)acetamido)-2-hydroxy-7-(trifluoromethyl)-3,4-dihydro-2H-benzo[e][1,2]oxaborinine-8-carboxylic acid]	8 to 16 (≈ 13.4 to 26.7 µM)	> 128	> 128	8 to 16 (≈ 13.4 to 26.7 µM)	> 128	> 128	> 128	> 128	> 128	> 128	> 128	> 128	> 500	B (B represents a potency between 30 μM and 500 μM inclusive)	–	–
CC1(C)S[C@@H]2[C@H](/N=C/N3CCCCCC3)C(=O)N2[C@H]1C(=O)O [mecillinam, reference compound]	–	–	–	–	–	–	–	–	–	–	–	–	–	–	2.1	0.4
